Experiment [1] deals with hAML cell lines. Kind of experiment: Venetoclax sensitivity of hAML cell lines. In kind it is cell-based, human. Particulars: sensitive (MV4-11, MOLM-13, OCL-AML2) vs resistant (MM-6, THP-1, HL-60/VCR, OCI-AML3).
Experimental: Venetoclax sensitive cell lines can be co-treated with SACLAC (0.3 to 2.5 μM) and venetoclax (1 to 32 nM). […] Cell viability can be determined by MTS assay 24 hours after treatment. CompuSyn software (ComboSyn Inc., Paramus, N.J., United States of America) can be used to determine synergy. A combination index (CI) of >1, 1, and <1 indicates antagonism, additive effect, and synergism, respectively, with increasing synergism indicated by values approaching zero.
Experiment [2] concerns OCI-AML2 cells. Kind of experiment: Western blot of SF3B1, Mcl-1S and Mcl-1L protein expression. The class given is cell-based, human. The method, then: Cells were plated at 2.5×10^5 cells per ml in 6-well plates and treated with drug, vehicle or siRNA at the indicated doses and time points. Cells were harvested, washed with PBS and lysed prior to preparation of protein extracts for western blotting.
More particularly, cells were lysed with RIPA buffer (#R0278, Sigma, St. Louis, Mo., United States of America) containing phosphatase inhibitor cocktails 2 and 3 (Sigma #P5726, #P0044) and protease inhibitor cocktail (#P8340, Sigma, St. Louis, Mo., United States of America). Protein was quantified using a bicinchoninic acid (BCA) protein assay kit (#23225, Pierce, Waltham, Mass., United States of America). Samples were resolved on a Bolt 4-12% SDS-PAGE gel (#NW00082, ThermoFisher Scientific, Waltham, Mass., United States of America) and transferred to PVDF membrane (#170-4274, Bio-Rad Laboratories, Hercules, Calif., United States of America). Antibodies were obtained from Cell Signaling Technology (Danvers, Mass., United States of America) unless indicated otherwise. Primary antibodies used were: Mcl-1 (#5453, RRID #AB 10694494), SF3B1 (#14434, RRID #AB 2798479), β-actin (#3700, RRID #AB_2242334) and AC (BD Biosciences #612302 (San Jose, California, United States of America), RRID #AB_399617). Secondary antibodies used were HRP-linked goat anti-mouse (#7076, RRID #AB_330924) or goat anti-rabbit IgG (#7074, RRID # AB_2099233). Clarity Max Western ECL Substrate (#1705062, Bio-Rad Laboratories, Hercules, Calif., United States of America) was added to visualize relative protein expression by chemiluminescence using the Bio-Rad ChemiDoc MP imaging system (Bio-Rad Laboratories, Hercules, Calif., United States of America). Quantification was done using Bio-Rad ImageLab 6.0.1 software (Bio-Rad Laboratories, Hercules, Calif., United States of America). For quantification, bands were normalized to β-actin as a loading control.
On the technique in general: Immunoblotting shows a protein as a band on a membrane.

Experiment [3] has as its target T1, acid ceramidase (AC) (Homo sapiens, UniProt Q13510).
T1 construct: endogenous in cells; host or cells: HL-60/VCR, THP-1 and OCI-AML2 human AML cell lines
T1 sequence (Q13510 143-395 limits assumed): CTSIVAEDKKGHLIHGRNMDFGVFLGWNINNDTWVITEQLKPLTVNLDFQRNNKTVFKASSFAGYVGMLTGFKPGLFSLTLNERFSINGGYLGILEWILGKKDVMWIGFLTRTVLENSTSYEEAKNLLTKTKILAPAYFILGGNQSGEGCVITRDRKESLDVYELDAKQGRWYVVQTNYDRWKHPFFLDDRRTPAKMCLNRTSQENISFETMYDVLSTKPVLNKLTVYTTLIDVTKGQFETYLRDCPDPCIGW
T1 sequence (Q13510 22-142 limits assumed): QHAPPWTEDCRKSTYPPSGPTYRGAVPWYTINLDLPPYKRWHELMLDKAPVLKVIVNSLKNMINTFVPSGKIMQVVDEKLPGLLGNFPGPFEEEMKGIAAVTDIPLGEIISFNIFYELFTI
Briefly: Acid ceramidase activity assay (RBM14C12 fluorogenic substrate) in human AML cell lines. In kind it is cell-based. Particulars: LCL204 5 or 10 μM vs SACLAC 1.25 or 2.5 μM; HL-60/VCR, THP-1, OCI-AML2. The method, then: Cells were seeded at 2×10^4 cells per well in 50 μl Acid ceramidase activity was measured at 24 hours using the RBM14C12 fluorogenic substrate as previously described (22,34).

On to `CC1(C)CCC(CN2CCN(c3ccc(C(=O)NS(=O)(=O)c4ccc(NCC5CCOCC5)c([N+](=O)[O-])c4)c(Oc4cnc5[nH]ccc5c4)c3)CC2)=C(c2ccc(Cl)cc2)C1` [Venetoclax], for which, in experiment [1], the “difference in sensitivity between venetoclax sensitive and resistant cell lines” value is over 100 fold.

With `CCCCCCCCCCCCC/C=C/[C@@H](O)[C@H](CO)NC(=O)CCCCCCCCCCCCCCC` [C16 ceramide, reference compound], in experiment [2] (C16 ceramide 20 μM, 48 hours), the SF3B1 protein entry is listed as “reduction” and the “ratio of Mcl-1S to Mcl-1L” value was “increase”.

On to `CN(C)CC[C@H](CSc1ccccc1)Nc1ccc(S(=O)(=O)NC(=O)c2ccc(N3CCN(Cc4ccccc4-c4ccc(Cl)cc4)CC3)cc2)cc1[N+](=O)[O-]` [ABT-737, 4-[4-[[2-(4-chlorophenyl)phenyl]methyl]piperazin-l-yl]-N-[4-[[(2R)-4-(dimethylamino)-1-phenylsulfanylbutan-2-yl]amino]-3-nitrophenyl]sulfonylbenzamide, reference compound], for which the “Mcl-1 cleavage fragment (caspase-mediated)” value in experiment [2] (ABT-737 75 nM, 24 hours, abrogated by Z-VAD-FMK 50 μM) is “smaller fragment of approximately 22 kDa”.

On to `CO[C@]1(C)C[C@@]2(CO2)[C@H](O)[C@@H](/C=C/C(C)=C/C[C@@H]2O[C@H](C)[C@H](NC(=O)/C=C\[C@H](C)OC(C)=O)C[C@@H]2C)O1` [Spliceostatin A, reference compound], for which the Mcl-1S protein entry in experiment [2] (5, 10 or 20 nM, 6 hours) is “dose-dependent increase”.

As to `CCCCCCCCCCCCCCN[C@H](CO)[C@H](O)c1ccc([N+](=O)[O-])cc1` [LCL204, (1R, 2R)-2-N-(tetradecylamino)-1-(4′-nitrophenyl)-1,3-propandiol, reference compound], in experiment [3], the “dose required to achieve similar AC inhibition as SACLAC” value was “four-fold higher dose”.

For the origin of these results see patent publication US20220387358A1, “CERAMIDE ANALOG SACLAC MODULATES SPHINGOLIPID LEVELS AND MCL-1 SPLICING TO INDUCE APOPTOSIS IN ACUTE MYELOID LEUKEMIA” (University of Virginia Patent Foundation, priority 2019, published 2022).
